Assay results from patent US9630925B2, “HSP90 inhibitor and preparation method and use thereof” (priority 2010, dated 2017).

What was measured:
[1] = in vitro; settings: African green monkey
Method: (§1) The cells were cultured overnight, and the culture solutions were discarded. […] Then the Vero cells were incubated for an additional 48 hours. The ATP levels in the Vero cells and the AK release quantity in the supernatant of the culture solutions were determined using kits from Lonza, US (Vialight HS kit and Toxilight bioassay kit). The maximum non-toxic concentration of the drug on the Vero cells within 48 hours were then assayed. The positive drug 17-AAG was used as control in the experiment (starting from 10 μM, double dilution of 6 concentrations).

[2] = system: Vero cells; assay: in vitro
Method: as §1

[3] = system: Herpes Simplex Virus Type 1 Strain F (HSV-1 F); assay: Anti-HSV-1 activity by CPE method; assay type: cell-based; settings: HSV-1, Vero, 48 hours
Description: (§2) In this example, the Vero cell line (ATCC CCL81, purchased from ATCC, US) was used as the normal cell. […] The cytopathic effect (CPE) was then observed under an optical microscope.

[4] = system: Herpes Simplex Virus Type II Strain 333 (HSV-2 333); assay: Anti-HSV-2 activity by CPE method; assay type: cell-based; settings: HSV-2, Vero, 48 hours
Description: as §2

[5] = system: Herpes Simplex Virus Type I Strain F (HSV-1 F); assay: Plaque reduction assay (PRA), HSV-1; assay type: cell-based; settings: for IC50: Human alphaherpesvirus 1, plaque reduction, Vero, n = 3, read-out: Antiviral activity HSV-1 IC50
Method: (§3) In this example, the Vero cell line (ATCC CCL81, purchased from ATCC, US) was used as the normal cell.
(§4) The Vero cells were cultured to a monolayer on 24 well plates. […] The virus solutions were suck out and discarded. […] After observing for 72 hours, they were fixed for 30 minutes with 10% formaldehyde, stained for 30 minutes with 1% crystal violet, rinsed with water, and dried. The plaques were counted with reference to Nitta's method, and the plaque inhibition rate was calculated.
(§5) A curve graph was plotted with the logarithmic value of the drug concentration as the horizontal coordinate, and the plaque inhibition rate as the vertical coordinate.

[6] = system: Herpes Simplex Virus Type II Strain 333 (HSV-2 333); assay: Plaque reduction assay (PRA), HSV-2; assay type: cell-based; settings: for IC50: Human alphaherpesvirus 2, plaque reduction, Vero, n = 3, read-out: Antiviral activity HSV-2 IC50
Method: as §3, §4, §5

[7] = system: human chronic myeloid leukemia cells (K562); assay: MTT proliferation inhibition, K562
Method: (§6) In this example, the positive control was 17-AAG (purchased from Alexis Biochemicals Company, US); and the applied cell lines of K562, Hela, A375, Mcf-7, etc., were all purchased from ATCC, Manassas, Va., USA.
Quadruplicate wells were set for each of the concentrations, and the experimental groups, the solvent control groups, and the blank groups were set for the experiments. The 96 well plates were placed in an incubator at 37° C., 5% CO2, and incubated for 48 hours.
(3) With reference to the MTT method established by Mosmann, 20 μL, MTT solution was added to each of the wells and incubation continued for 4 hours. The solution in each well was sucked out and discarded carefully. Then 100 mL DMSO was added to each of the wells, and the mixture shaken for 15 minutes on a shaker in the dark. The colorimetric measurements were carried out on a microplate reader (with a wavelength of 570 nm, and a reference wavelength of 630 nm), and the absorbances (A value) were determined. The half toxic concentration (IC50) of the drug was calculated.

[8] = system: human cervical carcinoma cells (Hela); assay: MTT proliferation inhibition, Hela
Description: as §6
(§7) (2) Human cervical carcinoma cells (Hela), human malignant melanoma cells (A375), human laryngeal epithelial cancer cells (Hep-2), and human breast cancer cells (MCF-7) in logarithmic growth phase were taken, and regulated into single cell suspensions having a cell concentration of 2×10^5/mL with a DMEM culture medium containing 10% fetal bovine serum (purchased from GIBCO BRL, US). Then the single cell suspensions were seeded into 96 well plates, 100 μL/well. The cells were cultured overnight, making them attach to the wall. […] Quadruplicate wells were set for each of the concentrations, and the experimental groups, the solvent control groups, and the blank groups were set for the experiments. The 96 well plates were placed in an incubator at 37° C., 5% CO2, and incubated for 48 hours.
(§8) (3) With reference to the MTT method established by Mosmann, 20 μL, MTT solution was added to each of the wells and incubation continued for 4 hours. […] The colorimetric measurements were carried out on a microplate reader (with a wavelength of 570 nm, and a reference wavelength of 630 nm), and the absorbances (A value) were determined. The half toxic concentration (IC50) of the drug was calculated.

[9] = system: human malignant melanoma cells (A375); assay: MTT proliferation inhibition, A375
Description: as §6, §7, §8

[10] = system: human breast cancer cells (MCF-7); assay: MTT proliferation inhibition, MCF-7
Description: as §6, §7, §8

[11] = system: human laryngeal epithelial cancer cells (Hep-2); assay: MTT proliferation inhibition, Hep-2
Description: as §6, §7, §8

[12] = system: Hsp90; settings: background statement; cited from earlier work

With `CC(=O)OC(CC(=O)OC1CCC(Nc2cc(-n3nc(C)c4c3CC(C)(C)CC4=O)ccc2C(N)=O)CC1)C[N+](C)(C)C.[Cl-]` (stereo not shown) [Xbj-B16-1, 2-(4-(3-acetylcarnitineacyloxy)cyclohexylamino)-4-(1-(3,6,6-trimethyl-4-oxy-4,5,6,7-terahydroindazole))benzamide] the CC50 at 48 h [1] was 47.8 ± 3.53 µM, the “Toxity TC0 (the maximum non-toxic concentration)” value ([2]; African green monkey, 48 h) was 12.5 µM and the maximum non-toxic concentration ([2]; African green monkey, 48 h) was 12.5 µM. For the same compound, the CPE ([3]; 0.39 μM) was “++++ (76%-100% ++++)”, the CPE ([3]; 0.78 μM) was “++++ (76%-100% ++++)” and the CPE ([3]; 1.56 μM) was “++++ (76%-100% ++++)”. The CPE ([3]; 3.13 μM) was “+++ (51%-75% +++)”, the CPE ([3]; 6.25 μM) was “++ (26%-50% ++)” and the CPE ([4]; 0.39 μM) was “++++ (76%-100% ++++)”. For the same compound, the CPE ([4]; 0.78 μM) was “++++ (76%-100% ++++)”, the CPE ([4]; 1.56 μM) was “++++ (76%-100% ++++)” and the CPE ([4]; 3.13 μM) was “+++ (51%-75% +++)”. The CPE ([4]; 6.25 μM) was “+++ (51%-75% +++)”, the CPE ([4]; 12.5 μM) was “+ (0-25% +)” and the IC50 [5] was 2.96 ± 0.56 µM. For the same compound, the “HSV-1 TI (therapeutic index, TC50/IC50)” value ([5]; TC50/IC50) was 16.14, the IC50 [6] was 3.2 ± 0.33 µM and the “HSV-2 TI (therapeutic index, TC50/IC50)” value ([6]; TC50/IC50) was 14.93. It also gave an IC50 ([7]; Homo sapiens, K562, 48 h) of 8.31 ± 1.78 µM, an IC50 ([8]; Homo sapiens, HeLa, 48 h) of 10.3 ± 2.48 µM and an IC50 ([9]; Homo sapiens, A-375, 48 h) of 7.23 ± 1.31 µM. The IC50 ([10]; Homo sapiens, MCF7, 48 h) was 9.53 ± 2.03 µM and the IC50 ([11]; Homo sapiens, HEp-2, 48 h) was 6.37 ± 2.13 µM.
With `Nc1nc2c(ncn2COCCO)c(=O)[nH]1` [ACV, Acyclovir, reference compound] the CPE ([4]; 0.16 μM) was “++ (26%-50% ++)”, the CPE ([4]; 0.31 μM) was “++ (26%-50% ++)” and the IC50 [5] was 4.16 ± 1.02 µM. It also gave an IC50 [6] of 3.32 ± 0.44 µM.
In the case of `CO[C@@H]1[C@@H](OC(N)=O)[C@@H](O)[C@H](Oc2ccc3c(O)c(NC(=O)c4ccc(O)c(CC=C(C)C)c4)c(=O)oc3c2C)OC1(C)C` [Novobiocin], the “concentration used as an inhibitor of Hsp90” value [12] is listed as “up to 700 μM”.
Work on `C=CCNC1=C2C[C@@H](C)C[C@H](OC)[C@H](O)[C@@H](C)/C=C(\C)[C@H](OC(N)=O)[C@@H](OC)/C=C\C=C(/C)C(=O)NC(=CC1=O)C2=O` [Compound 17-AAG, 17-allylaminogeldanamycin, reference compound] yielded a maximum non-toxic concentration ([2]; Vero cells, 48 hours) of 0.63 µM, an IC50 ([7]; K562, MTT, 48 hours) of 2.43 ± 0.68 µM and an IC50 ([8]; Hela, MTT, 48 hours) of 5.42 ± 0.18 µM. It also gave an IC50 ([9]; A375, MTT, 48 hours) of 3.13 ± 0.15 µM, an IC50 ([10]; MCF-7, MTT, 48 hours) of 3.24 ± 0.15 µM and an IC50 ([11]; Hep-2, MTT, 48 hours) of 2.33 ± 0.3 µM.
